Results: patent US9603793B2, “Nano / micro bubbles for drug delivery” (National Tsing Hua University, priority 2014, dated 2017)

How the values were obtained:
[1] = tested on: cells; assay: Cell images of cells co-cultured with the components (FITC-insulin transmission); assay type: cell-based; settings: cells co-cultured with the component; stained with Cld 4, E-cadherin and DAPI; FIG. 3
[2] = Pharmacokinetic test of nano/micro bubbles (plasma insulin and blood glucose); assay type: in vivo; settings: subcutaneous injection of insulin 5 IU/kg; 0 to 10 hours; FIG. 5b
Description: Pharmacokinetic Test of Nano/Micro Bubbles In the present example, groups comprising nano/micro bubbles of the present invention (containing 30 IU/kg of insulin), oral administration (30 IU/kg of insulin) and subcutaneous injection of insulin (5 IU/kg) are compared. The change rates in plasma insulin and blood glucose concentration from 0 to 10 hours after subjects taking insulin or injected with insulin were recorded respectively, and the results are illustrated in FIGS. 5a and 5b.

Compound | transmission of FITC-insulin (paracellular / transcellular pathway) [1] | change rate of the blood glucose [2]
CCCCCCCCCCCCOS(=O)(=O)[O-].[Na+] [SDS, sodium dodecyl sulfate] | can promote transmission of FITC-insulin via both of paracellular pathway and transcellular pathway | –
insulin | – | rapidly declined and rose again
O=C(O)CN(CCN1CC(=O)OC(=O)C1)CCN1CC(=O)OC(=O)C1 [DTPA dianhydride, diethylenetriaminepentaacetic dianhydride] | can promote transmission of FITC-insulin via paracellular pathway | –
